Like-named read-outs stand apart in the source and are kept apart here.
Tests used:
Assay in all cases: microbe, parasite or virus in culture
Format in all cases: cell-based
[1] = system: SARS-CoV-2 lineage B strain (VIDO); conditions: Severe acute respiratory syndrome coronavirus 2, 72 h; Calu-3 cells, Fig. 3d, n = 4; read-out: EC50, dsRNA staining, Variant B (VIDO-01)
[2] = system: SARS-CoV-2 B.1.1.7 (Alpha); conditions: Calu-3 cells, n = 4
[3] = system: SARS-CoV-2 B.1.351 (Beta); conditions: Calu-3 cells, n = 4
[4] = system: SARS-CoV-2 P.1 (Gamma); conditions: Calu-3 cells, n = 4
[5] = system: SARS-CoV-2 B.1.617.2 (Delta); conditions: Calu-3 cells, n = 4

CS(=O)(=O)NC(CCC(N)=O)C(=O)NC(Cc1ccccc1)C(=O)NC(CCCNC(=N)N)C(=O)c1nc2ccccc2s1 (stereo not drawn) [Compound N-0385, Ms-QFR-kbt]
EC50 [1]: 0.0143 µM | EC50 ([2]; Severe acute respiratory syndrome coronavirus 2, 72 h, Fig. 3d, read-out: EC50, dsRNA staining, Variant B.1.1.7 (Alpha)): 0.0026 µM | EC50 ([2]; Severe acute respiratory syndrome coronavirus 2, Fig. 3c, read-out: EC50, N staining, Variant B.1.1.7 (Alpha)): 0.0021 µM | EC50 ([3]; Severe acute respiratory syndrome coronavirus 2, 72 h, Fig. 3d, read-out: EC50, dsRNA staining, Variant B.1.351 (Beta)): 0.022 µM | EC50 ([3]; Severe acute respiratory syndrome coronavirus 2, Fig. 3c, read-out: EC50, N staining, Variant B.1.351 (Beta)): 0.0128 µM | EC50 ([4]; Severe acute respiratory syndrome coronavirus 2, 72 h, Fig. 3d, read-out: EC50, dsRNA staining, Variant P.1 (Gamma)): 0.0054 µM | EC50 ([4]; Severe acute respiratory syndrome coronavirus 2, Fig. 3c, read-out: EC50, N staining, Variant P.1 (Gamma)): 0.0065 µM | EC50 ([5]; Severe acute respiratory syndrome coronavirus 2, 72 h, Fig. 3d, read-out: EC50, dsRNA staining, Variant B.1.617.2 (Delta)): 0.0265 µM | EC50 ([5]; Severe acute respiratory syndrome coronavirus 2, Fig. 3c, read-out: EC50, N staining, Variant B.1.617.2 (Delta)): 0.0139 µM

Reference: article PMC9095466 (Nature, 2022)
